Experimental data from the supplement of paper PMC10307832.

Assays:
Assay in all cases: relative viability (nuclei count vs DMSO), 5 days (fraction); higher = more cells survive
AGI-6780 + Tozasertib = compound: O=C(Nc1cccc(C(F)(F)F)c1)Nc1cc(S(=O)(=O)NC2CC2)ccc1-c1ccsc1 [AGI-6780] + Cc1cc(Nc2cc(N3CCN(C)CC3)nc(Sc3ccc(NC(=O)C4CC4)cc3)n2)n[nH]1 [Tozasertib] (partner 0.1 µM)
How it was run: (§1)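 Nuclei were stained with Hoechst during a one-step fixation (final 0.05% Triton X-100, 1% formaldehyde, 1 ug/ml Hoechst) carried out 5 days after dosing, then counted on 4× images. The cells, lung cancer lines in 1536-well plates, had been dosed by pin tool the day after seeding with one drug alone or a fixed anchor-drug dose plus five library-drug doses (not always all listed) in √10 steps. Relative viability is the nuclei count in treated wells divided by that in vehicle wells, and each value is the median of duplicate plates.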

AGI-6780 + Dasatinib = compound: O=C(Nc1cccc(C(F)(F)F)c1)Nc1cc(S(=O)(=O)NC2CC2)ccc1-c1ccsc1 [AGI-6780] + Cc1nc(Nc2ncc(C(=O)Nc3c(C)cccc3Cl)s2)cc(N2CCN(CCO)CC2)n1 [Dasatinib] (partner 0.075 µM)
How it was run: as §1

AGI-6780 + Luminespib = compound: O=C(Nc1cccc(C(F)(F)F)c1)Nc1cc(S(=O)(=O)NC2CC2)ccc1-c1ccsc1 [AGI-6780] + CCNC(=O)c1noc(-c2cc(C(C)C)c(O)cc2O)c1-c1ccc(CN2CCOCC2)cc1 [Luminespib] (partner 0.01 µM)
How it was run: as §1

AGI-6780 + Olaparib = compound: O=C(Nc1cccc(C(F)(F)F)c1)Nc1cc(S(=O)(=O)NC2CC2)ccc1-c1ccsc1 [AGI-6780] + O=C(c1cc(Cc2n[nH]c(=O)c3ccccc23)ccc1F)N1CCN(C(=O)C2CC2)CC1 [Olaparib] (partner 8 µM)
How it was run: as §1

AGI-6780 + AZD7762 = compound: O=C(Nc1cccc(C(F)(F)F)c1)Nc1cc(S(=O)(=O)NC2CC2)ccc1-c1ccsc1 [AGI-6780] + NC(=O)Nc1cc(-c2cccc(F)c2)sc1C(=O)N[C@H]1CCCNC1 [AZD7762] (partner 0.2 µM)
How it was run: as §1

AGI-6780 + Phenformin = compound: O=C(Nc1cccc(C(F)(F)F)c1)Nc1cc(S(=O)(=O)NC2CC2)ccc1-c1ccsc1 [AGI-6780] + N=C(N)NC(=N)NCCc1ccccc1 [Phenformin] (partner 250 µM)
How it was run: as §1

AGI-6780 + Decitabine = compound: O=C(Nc1cccc(C(F)(F)F)c1)Nc1cc(S(=O)(=O)NC2CC2)ccc1-c1ccsc1 [AGI-6780] + Nc1ncn([C@H]2C[C@H](O)[C@@H](CO)O2)c(=O)n1 [Decitabine] (partner 2 µM)
How it was run: as §1

AGI-6780 + Pemetrexed = compound: O=C(Nc1cccc(C(F)(F)F)c1)Nc1cc(S(=O)(=O)NC2CC2)ccc1-c1ccsc1 [AGI-6780] + Nc1nc2[nH]cc(CCc3ccc(C(=O)N[C@@H](CCC(=O)O)C(=O)O)cc3)c2c(=O)[nH]1 [Pemetrexed] (partner 0.2 µM)
How it was run: as §1

AGI-6780 + OSI-027 = compound: O=C(Nc1cccc(C(F)(F)F)c1)Nc1cc(S(=O)(=O)NC2CC2)ccc1-c1ccsc1 [AGI-6780] + COc1cccc2cc(-c3nc([C@H]4CC[C@H](C(=O)O)CC4)n4ncnc(N)c34)[nH]c12 [OSI-027] (partner 0.5 µM)
How it was run: as §1

AGI-6780 + Trametinib = compound: O=C(Nc1cccc(C(F)(F)F)c1)Nc1cc(S(=O)(=O)NC2CC2)ccc1-c1ccsc1 [AGI-6780] + CC(=O)Nc1cccc(-n2c(=O)n(C3CC3)c(=O)c3c(Nc4ccc(I)cc4F)n(C)c(=O)c(C)c32)c1 [Trametinib] (partner 0.02 µM)
How it was run: as §1

AGI-6780 + Foretinib = compound: O=C(Nc1cccc(C(F)(F)F)c1)Nc1cc(S(=O)(=O)NC2CC2)ccc1-c1ccsc1 [AGI-6780] + COc1cc2c(Oc3ccc(NC(=O)C4(C(=O)Nc5ccc(F)cc5)CC4)cc3F)ccnc2cc1OCCCN1CCOCC1 [Foretinib] (partner 0.25 µM)
How it was run: as §1

AGI-6780 + Vorinostat = compound: O=C(Nc1cccc(C(F)(F)F)c1)Nc1cc(S(=O)(=O)NC2CC2)ccc1-c1ccsc1 [AGI-6780] + O=C(CCCCCCC(=O)Nc1ccccc1)NO [Vorinostat] (partner 1 µM)
How it was run: as §1

AGI-6780 + Palbociclib = compound: O=C(Nc1cccc(C(F)(F)F)c1)Nc1cc(S(=O)(=O)NC2CC2)ccc1-c1ccsc1 [AGI-6780] + CC(=O)c1c(C)c2cnc(Nc3ccc(N4CCNCC4)cn3)nc2n(C2CCCC2)c1=O [Palbociclib] (partner 0.5 µM)
How it was run: as §1

AGI-6780 = compound: O=C(Nc1cccc(C(F)(F)F)c1)Nc1cc(S(=O)(=O)NC2CC2)ccc1-c1ccsc1 [AGI-6780]
How it was run: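 On vehicle-anchored 1536-well plates, lung cancer cell lines held overnight at 37 °C were pinned with five library-drug doses (not always all listed) spaced by √10. With no medium change over 5 days, they were then fixed, permeabilised and Hoechst-stained in one step and imaged at 4×. MetaXpress counted nuclei, and viability is the median across plates of treated-well over vehicle-well nuclei. Acceptance needed control CV below 25% and at least one doubling.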

NCI-H2342
relative viability (AGI-6780 + Tozasertib; first compound 0.08 µM): 0.56 | relative viability (AGI-6780 + Tozasertib; first compound 0.253 µM): 0.52 | relative viability (AGI-6780 + Tozasertib; first compound 0.8 µM): 0.593 | relative viability (AGI-6780 + Tozasertib; first compound 2.53 µM): 0.43 | relative viability (AGI-6780 + Tozasertib; first compound 8 µM): 0.597 | relative viability (AGI-6780 + Dasatinib; first compound 0.08 µM): 0.3 | relative viability (AGI-6780 + Dasatinib; first compound 0.253 µM): 0.369 | relative viability (AGI-6780 + Dasatinib; first compound 0.8 µM): 0.34 | relative viability (AGI-6780 + Dasatinib; first compound 2.53 µM): 0.302 | relative viability (AGI-6780 + Dasatinib; first compound 8 µM): 0.317 | relative viability (AGI-6780 + Luminespib; first compound 0.08 µM): 0.604 | relative viability (AGI-6780 + Luminespib; first compound 0.253 µM): 0.68 | relative viability (AGI-6780 + Luminespib; first compound 0.8 µM): 0.679 | relative viability (AGI-6780 + Luminespib; first compound 2.53 µM): 0.552 | relative viability (AGI-6780 + Luminespib; first compound 8 µM): 1.09 | relative viability (AGI-6780 + Olaparib; first compound 0.08 µM): 0.407 | relative viability (AGI-6780 + Olaparib; first compound 0.253 µM): 0.437 | relative viability (AGI-6780 + Olaparib; first compound 0.8 µM): 0.504 | relative viability (AGI-6780 + Olaparib; first compound 2.53 µM): 0.497 | relative viability (AGI-6780 + Olaparib; first compound 8 µM): 0.565 | relative viability (AGI-6780 + AZD7762; first compound 0.08 µM): 0.47 | relative viability (AGI-6780 + AZD7762; first compound 0.253 µM): 0.667 | relative viability (AGI-6780 + AZD7762; first compound 0.8 µM): 0.612 | relative viability (AGI-6780 + AZD7762; first compound 2.53 µM): 0.499 | relative viability (AGI-6780 + AZD7762; first compound 8 µM): 0.733 | relative viability (AGI-6780 + Phenformin; first compound 0.08 µM): 0.572 | relative viability (AGI-6780 + Phenformin; first compound 0.253 µM): 0.759 | relative viability (AGI-6780 + Phenformin; first compound 0.8 µM): 0.636 | relative viability (AGI-6780 + Phenformin; first compound 2.53 µM): 0.53 | relative viability (AGI-6780 + Phenformin; first compound 8 µM): 0.793 | relative viability (AGI-6780 + Decitabine; first compound 0.08 µM): 0.727 | relative viability (AGI-6780 + Decitabine; first compound 0.253 µM): 0.733 | relative viability (AGI-6780 + Decitabine; first compound 0.8 µM): 0.732 | relative viability (AGI-6780 + Decitabine; first compound 2.53 µM): 0.65 | relative viability (AGI-6780 + Decitabine; first compound 8 µM): 0.99 | relative viability (AGI-6780 + Pemetrexed; first compound 0.08 µM): 0.777 | relative viability (AGI-6780 + Pemetrexed; first compound 0.253 µM): 0.781 | relative viability (AGI-6780 + Pemetrexed; first compound 0.8 µM): 0.835 | relative viability (AGI-6780 + Pemetrexed; first compound 2.53 µM): 0.715 | relative viability (AGI-6780 + Pemetrexed; first compound 8 µM): 0.85 | relative viability (AGI-6780 + OSI-027; first compound 0.08 µM): 0.63 | relative viability (AGI-6780 + OSI-027; first compound 0.253 µM): 0.721 | relative viability (AGI-6780 + OSI-027; first compound 0.8 µM): 0.58 | relative viability (AGI-6780 + OSI-027; first compound 2.53 µM): 0.57 | relative viability (AGI-6780 + OSI-027; first compound 8 µM): 0.662 | relative viability (AGI-6780 + Trametinib; first compound 0.08 µM): 0.866 | relative viability (AGI-6780 + Trametinib; first compound 0.253 µM): 0.72 | relative viability (AGI-6780 + Trametinib; first compound 0.8 µM): 0.772 | relative viability (AGI-6780 + Trametinib; first compound 2.53 µM): 0.723 | relative viability (AGI-6780 + Trametinib; first compound 8 µM): 0.981 | relative viability (AGI-6780 + Foretinib; first compound 0.08 µM): 1.11 | relative viability (AGI-6780 + Foretinib; first compound 0.253 µM): 1.11 | relative viability (AGI-6780 + Foretinib; first compound 0.8 µM): 1.05 | relative viability (AGI-6780 + Foretinib; first compound 2.53 µM): 0.978 | relative viability (AGI-6780 + Foretinib; first compound 8 µM): 1.12 | relative viability (AGI-6780 + Vorinostat; first compound 0.08 µM): 0.749 | relative viability (AGI-6780 + Vorinostat; first compound 0.253 µM): 0.824 | relative viability (AGI-6780 + Vorinostat; first compound 0.8 µM): 0.874 | relative viability (AGI-6780 + Vorinostat; first compound 2.53 µM): 0.663 | relative viability (AGI-6780 + Vorinostat; first compound 8 µM): 1.1 | relative viability (AGI-6780 + Palbociclib; first compound 0.08 µM): 0.506 | relative viability (AGI-6780 + Palbociclib; first compound 0.253 µM): 0.504 | relative viability (AGI-6780 + Palbociclib; first compound 0.8 µM): 0.509 | relative viability (AGI-6780 + Palbociclib; first compound 2.53 µM): 0.478 | relative viability (AGI-6780 + Palbociclib; first compound 8 µM): 0.548 | relative viability (AGI-6780; 0.08 µM): 0.984 | relative viability (AGI-6780; 0.253 µM): 1.01 | relative viability (AGI-6780; 0.8 µM): 1.15 | relative viability (AGI-6780; 2.53 µM): 0.848 | relative viability (AGI-6780; 8 µM): 1.2
